Laboratory results published in paper PMC5544727, “The type IV pilus assembly ATPase PilB functions as a signaling protein to regulate exopolysaccharide production in Myxococcus xanthus” (Scientific Reports, 2017).
Positions count from the first letter of the chain named.

Columns and labels:
Type in all cases: binding
[1] = target: T1, PilB^WA (T. thermophilus PilB/PilF, TtPilB) (Thermus thermophilus, UniProt Q5SLC9, K654A); test: fluorescence titration of MANT-ATP with purified protein
T1 sequence (Q5SLC9 1-889 K654A): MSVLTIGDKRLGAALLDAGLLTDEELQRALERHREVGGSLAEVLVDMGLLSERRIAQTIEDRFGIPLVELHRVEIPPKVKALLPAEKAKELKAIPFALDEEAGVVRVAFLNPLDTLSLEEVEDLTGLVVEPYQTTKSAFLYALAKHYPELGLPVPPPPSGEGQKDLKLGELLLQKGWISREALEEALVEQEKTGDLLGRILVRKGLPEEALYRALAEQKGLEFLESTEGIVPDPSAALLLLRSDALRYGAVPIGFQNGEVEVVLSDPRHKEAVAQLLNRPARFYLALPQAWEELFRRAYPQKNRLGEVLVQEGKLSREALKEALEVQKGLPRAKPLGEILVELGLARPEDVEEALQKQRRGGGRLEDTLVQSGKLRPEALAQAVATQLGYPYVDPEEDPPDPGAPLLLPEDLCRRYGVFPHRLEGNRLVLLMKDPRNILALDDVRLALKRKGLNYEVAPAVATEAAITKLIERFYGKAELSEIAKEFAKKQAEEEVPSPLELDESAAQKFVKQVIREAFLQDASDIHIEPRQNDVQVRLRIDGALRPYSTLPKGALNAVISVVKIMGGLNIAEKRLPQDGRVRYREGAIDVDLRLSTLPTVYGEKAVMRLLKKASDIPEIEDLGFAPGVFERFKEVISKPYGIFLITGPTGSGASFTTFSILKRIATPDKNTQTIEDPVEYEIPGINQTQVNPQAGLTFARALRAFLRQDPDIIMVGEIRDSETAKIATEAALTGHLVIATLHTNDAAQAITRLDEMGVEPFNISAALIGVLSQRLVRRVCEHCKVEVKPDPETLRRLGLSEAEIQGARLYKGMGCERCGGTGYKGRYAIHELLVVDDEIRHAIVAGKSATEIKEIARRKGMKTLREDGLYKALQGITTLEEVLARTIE

[2] = target: T2, PilB^WT (T. thermophilus PilB/PilF, TtPilB) (Thermus thermophilus, UniProt Q72H73); test: as above
[3] = target: T3, PilB^WB (T. thermophilus PilB/PilF, TtPilB) (Thermus thermophilus, UniProt Q5SLC9, E718A); test: as above
T3 sequence (Q5SLC9 1-889 E718A): T1 sequence (Q5SLC9 1-889 K654A) with A654K, E718A

[4] = target: T2, PilB^WT (T. thermophilus PilB/PilF, TtPilB); test: near-UV CD spectral shift, […] ligand
[5] = target: T3, PilB^WB (T. thermophilus PilB/PilF, TtPilB); test: near-UV CD spectral shift, […] ligand
[6] = target: T2, PilB^WT (T. thermophilus PilB/PilF, TtPilB); test: DSF thermal stabilization, […] ligand (no Kd)
[7] = target: T3, PilB^WB (T. thermophilus PilB/PilF, TtPilB); test: DSF thermal stabilization, […] ligand (no Kd)
[8] = target: T1, PilB^WA (T. thermophilus PilB/PilF, TtPilB); test: near-UV CD spectral shift (less pronounced than WT), […] ligand

T2 sequence (Q72H73 entry or part of it): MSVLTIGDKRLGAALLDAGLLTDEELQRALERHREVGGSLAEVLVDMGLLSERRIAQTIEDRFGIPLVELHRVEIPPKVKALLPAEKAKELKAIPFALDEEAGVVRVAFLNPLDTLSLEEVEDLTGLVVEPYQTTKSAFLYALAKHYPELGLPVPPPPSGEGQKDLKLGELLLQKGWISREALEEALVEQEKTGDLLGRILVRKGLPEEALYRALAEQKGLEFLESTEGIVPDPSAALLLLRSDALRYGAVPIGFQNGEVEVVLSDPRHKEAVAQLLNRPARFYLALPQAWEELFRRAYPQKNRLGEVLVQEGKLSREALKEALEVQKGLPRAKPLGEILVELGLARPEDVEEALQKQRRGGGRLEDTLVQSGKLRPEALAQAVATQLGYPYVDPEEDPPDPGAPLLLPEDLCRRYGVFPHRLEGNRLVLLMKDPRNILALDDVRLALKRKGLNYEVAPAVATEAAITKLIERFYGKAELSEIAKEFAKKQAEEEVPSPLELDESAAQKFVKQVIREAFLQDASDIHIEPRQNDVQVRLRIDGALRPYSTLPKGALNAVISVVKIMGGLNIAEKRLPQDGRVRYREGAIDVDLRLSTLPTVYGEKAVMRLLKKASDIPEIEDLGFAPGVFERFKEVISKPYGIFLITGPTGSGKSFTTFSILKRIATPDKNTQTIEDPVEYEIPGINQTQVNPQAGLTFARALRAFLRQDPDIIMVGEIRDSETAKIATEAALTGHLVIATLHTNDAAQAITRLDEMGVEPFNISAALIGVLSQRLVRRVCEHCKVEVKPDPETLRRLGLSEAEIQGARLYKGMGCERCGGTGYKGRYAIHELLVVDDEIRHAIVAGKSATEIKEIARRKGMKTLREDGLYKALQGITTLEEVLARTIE

`CNc1ccccc1C(=O)O[C@H]1[C@@H](O)[C@H](n2cnc3c(N)ncnc32)O[C@@H]1CO[P@@](=O)(O)O[P@](=O)(O)OP(=O)(O)O` (mixture of isomers) [MANT-ATP, 2′-/3′-O-(N-methylanthraniloyl) adenosine-5′-triphosphate] gave a Kd [1] of 1230 nM, a Kd [2] of 170 nM and a Kd [3] of 190 nM.
With `Nc1ncnc2c1ncn2[C@@H]1O[C@H](COP(=O)(O)OP(=O)(O)O)[C@@H](O)[C@H]1O` [ADP] the “near-UV CD spectral shift, 0.1 mM ligand” value [4] was “The addition of ADP also shifted the spectra of PilB^WT and PilB^WB, but not that of PilB^WA” and the “near-UV CD spectral shift, 0.1 mM ligand” value [5] was “The addition of ADP also shifted the spectra of PilB^WT and PilB^WB, but not that of PilB^WA”.
For `Nc1ncnc2c1ncn2[C@@H]1O[C@H](CO[P@](=O)(O)O[P@](=O)(O)NP(=O)(O)O)[C@@H](O)[C@H]1O` [AMP-PNP, adenosine 5′-(β,γ-imido)triphosphate], the “DSF thermal stabilization, 0.4 mM ligand (no Kd)” value [6] was “This nucleotide stabilized both PilB^WT and PilB^WB, resulting in the disappearance of the first unfolding transition” and the “DSF thermal stabilization, 0.4 mM ligand (no Kd)” value [7] was “This nucleotide stabilized both PilB^WT and PilB^WB, resulting in the disappearance of the first unfolding transition”.
For `Nc1ncnc2c1ncn2[C@@H]1O[C@H](COP(=O)(O)OP(=O)(O)OP(=O)(O)O)[C@@H](O)[C@H]1O` [ATP], the “near-UV CD spectral shift (less pronounced than WT), 0.1 mM ligand” value [8] was “the shift for PilB^WA is less pronounced compared to those seen for the other two”.
